Paper PMC7504817, “Phenylalanine Stereoisomers of CJ-15,208 and [D-Trp]CJ-15,208 Exhibit Distinctly Different Opioid Activity Profiles” (Molecules, 2020)
Read-outs that look alike come from different tables or passages of the source.

Legend:
C57BL/6J mice [1] = test: 55 °C warm-water tail-withdrawal assay (antinociception); format: in vivo, mouse; set-up: key to ED50 p.o. (symbol: not calculable): ~: Maximum antinociception not achieved, precluding calculation of an ED50 value; details: for antinociception at the highest oral dose tested: 30 mg/kg
Protocol: For intracerebroventricular (i.c.v.) administration the macrocyclic tetrapeptides were dissolved in dimethyl sulfoxide (DMSO), followed by addition of sterile saline (0.9%) so that the final vehicle was 50% DMSO and 50% saline, and the i.c.v. injections performed as described previously. This concentration of DMSO was not observed to have antinociceptive or behavioral effects in previous use. For per os (p.o.) administration the macrocyclic tetrapeptides were administered in 10% Solutol in 0.9% saline. All solutions for animal administration were prepared fresh daily.
The 55 °C warm-water tail-withdrawal assay was performed in mice as previously described, with the latency of the mouse to withdraw its tail from the water taken as the endpoint (a cut-off time of 15 sec was used in this assay). Antinociception was calculated according to the following formula: % antinociception = 100 × (test latency − control latency)/(15 − control latency). Tail-withdrawal data points are the means of 8–16 mice, unless otherwise indicated, with SEM shown by error bars.
All dose-response lines were analyzed by regression, and ED50 (effective dose producing 50% antinociception) values and 95% confidence intervals (C.I.) determined using individual data points from graded dose-response curves with Prism 8.0 software (GraphPad, La Jolla, CA, USA). Percent antinociception was used to determine within group effects and to allow comparison to baseline latency in tail-withdrawal experiments. The statistical significance of differences between ED50 values was determined by evaluation of the ED50 value shift via nonlinear regression modeling with Prism software. Significant differences in behavioral data were analyzed by ANOVA (one-way or two-way with repeated measures (RM), as appropriate). Significant results were further analyzed with Sidak’s, Tukey’s, or Dunnett’s multiple comparison post hoc tests, as appropriate. Data for conditioned place preference experiments were analyzed by two-way RM ANOVA, with analyses examining the main effect of conditioned place preference phase (e.g., pre- or post-conditioning) and the interaction of drug pretreatment. Significant effects were further analyzed using Sidak’s HSD post hoc testing. All data are presented as mean ± SEM, with significance set at p < 0.05.

rat KOR [2] = biological target: T1, rat KOR (Rattus norvegicus, UniProt P34975); details: ratio Ki(MOR)/Ki(KOR)
C57BL/6J mice [3] = test: Acute antinociceptive tolerance (tail-withdrawal assay, dosing at 0 and 8 h); details: i.c.v.; for Fold-Shift, Naïve ED50 vs. Second ED50: 0 h vs 8 h; for ED50 (95% C.I.) Pretreated Mice: 8 h after pretreatment with ED50 dose of the same compound, * significantly different from naïve; for acute antinociceptive tolerance: ED50 at 8 h vs 0 h; for Naïve ED50 (95% C.I.): naïve C57BL/6J mice, tail-withdrawal assay
C57BL/6J mice [4] = details: mouse, in vivo
C57BL/6J mice [5] = test: Opioid receptor involvement in antinociception (antagonist pretreatment, tail-withdrawal assay); format: in vivo, mouse; details: i.c.v. (1, 3, 4, 5 at 10 nmol, 2 at 100 nmol); pretreatment with β-FNA, nor-BNI or naltrindole
rat KOR [6] = biological target: T1, rat KOR; test: biochemical
[7] = Metabolic stability in mouse liver microsomes; format: in vitro ADME; details: pH 7.4, 5 µM peptide, 0.25 mg/mL protein, with NADPH, 37 °C, read-out: t1/2 in mouse liver microsomes
Protocol: The macrocyclic tetrapeptide (5 µM) in 1% acetonitrile was incubated with mouse liver microsomes (0.25 mg/mL protein, Xenotech, Lenexa, KS, USA) at 37 °C in the presence or absence of co-factor NADPH RapidStart System (1 mM, Xenotech) or NADPH solution (Sigma, St. Louis, MO, USA) in potassium phosphate buffer (50 mM, pH 7.4). Aliquots (100 µL) taken at 0, 5, 15, 30, 60 and 120 min were quenched with ice-cold acetonitrile (1 vol) containing internal standard ([D-NMeAla^2]CJ-15,208 [26], 5 µM) to precipitate the proteins. The lack of endogenous interference with the analysis of the stereoisomer or internal standard was confirmed by analyzing samples lacking the macrocyclic tetrapeptide.
Following centrifugation at 10,000× g rpm for 10 min, the supernatant (50 µL) was diluted with water (75 µL), stored overnight at −20 °C and analyzed by LC-MS/MS using methodology similar to that described for [D-Trp]CJ-15,208 [32]. Liquid chromatography was performed on a Hypersil BDS C8 column (50 mm × 2.1 mm, 3 µm) with a flow rate of 0.2 mL/min and an injection volume of 20 µL using an Acquity UPLC system (Waters, Milford, MA, USA). The peptides were separated using a gradient of aqueous acetonitrile containing 0.08% formic acid of 20% B (0–2 min), 20–50% B (2–3 min), 50–80% B (3–6 min), 80% B (6–7 min), 80–20% B (7–8 min) and 20% B (8–10 min).
ESI-MS/MS was performed on a Waters Quatro triple quadrupole instrument operating in the positive ion multiple reaction monitoring mode. Data acquisition was carried out with Mass Lynx 4.1 software with the following settings: capillary voltage, 2500 V; cone voltage, 30 V; source temperature, 100 °C; desolvation temperature, 250 °C; cone gas flow, 279 L/h; desolvation gas flow, 1157 L/h; LM 1 resolution, 14; HM 1 resolution, 14; ion energy 1, 1.0; MS/MS mode entrance, -1; MS/MS collision energy, 35 eV; MS/MS mode exit, 2; LM 2 resolution, 13.0; HM 2 resolution, 13.0; ion energy 2, 1.5; multiplier, 650; collision cell pressure, 1.63 × 10^−3 mbar; collision gas, argon. The transition m/z 578.2 ([M + H]^+) → 217.2 was monitored to determine the peak area counts of the stereoisomers, and m/z 566.2 ([M + H]^+) → 232.9 was monitored to determine the peak area counts of the internal standard (collision energy 22 eV) with the following settings: dwell time, 0.3 s; delay, 0.05 s.

rat MOR = biological target: T2, rat MOR (Rattus norvegicus, UniProt P33535); test: Radioligand equilibrium competition binding, MOR; details: [3H]DAMGO; membranes from CHO cells expressing rat MOR; mean ± SEM, at least three experiments
T2 construct: expressed in transfected cells

C57BL/6J mice [8] = details: mouse, in vivo; remark: listed apart in the source
C57BL/6J mice [9] = details: mouse, in vivo; remark: listed apart in the source
C57BL/6J mice [10] = tested on: C57BL/6J mice; set-up: key to ED50 i.c.v. (symbol: not calculable) / ED50 p.o. (symbol: not calculable): ~: Maximum antinociception not achieved, precluding calculation of an ED50 value; details: ref [19], cited from earlier work
mouse DOR = details: radioligand binding; ref [19]; cited from earlier work
[11] = i.c.v., C57BL/6J mice, antinociception at peak response

T2 sequence (P33535 whole entry): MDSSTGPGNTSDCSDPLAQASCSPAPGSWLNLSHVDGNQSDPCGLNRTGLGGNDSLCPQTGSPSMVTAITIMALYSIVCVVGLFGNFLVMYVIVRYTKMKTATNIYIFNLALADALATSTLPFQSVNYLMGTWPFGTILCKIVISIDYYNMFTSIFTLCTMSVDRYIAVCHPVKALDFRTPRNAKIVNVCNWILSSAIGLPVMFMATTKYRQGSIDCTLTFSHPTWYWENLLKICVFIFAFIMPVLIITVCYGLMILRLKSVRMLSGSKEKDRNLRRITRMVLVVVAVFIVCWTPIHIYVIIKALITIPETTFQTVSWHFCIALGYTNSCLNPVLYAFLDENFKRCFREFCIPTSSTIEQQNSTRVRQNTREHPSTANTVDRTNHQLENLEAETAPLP
T1 sequence (P34975 whole entry): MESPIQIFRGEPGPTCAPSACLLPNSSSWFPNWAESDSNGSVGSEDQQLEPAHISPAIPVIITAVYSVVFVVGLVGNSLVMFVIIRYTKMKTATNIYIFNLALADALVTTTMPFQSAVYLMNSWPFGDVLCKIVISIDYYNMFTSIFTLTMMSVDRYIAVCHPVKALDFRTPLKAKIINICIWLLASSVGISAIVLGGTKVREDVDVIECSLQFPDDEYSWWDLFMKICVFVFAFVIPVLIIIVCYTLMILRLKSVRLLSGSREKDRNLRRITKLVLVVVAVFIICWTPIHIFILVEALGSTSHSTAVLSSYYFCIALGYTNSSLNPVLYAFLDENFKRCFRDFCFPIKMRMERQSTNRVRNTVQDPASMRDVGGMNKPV

| Structure (SMILES) | antinociception at the highest oral dose tested (C57BL/6J mice [1]; p.o.) | time of peak antinociception (C57BL/6J mice [1]; after i.c.v. administration) [min] | duration of significant antinociception (C57BL/6J mice [1]; i.c.v. administration) [min] | ED50 (and 95% C.I.) i.c.v. (C57BL/6J mice [1]; [11]) | ED50 p.o. (symbol: not calculable) (C57BL/6J mice [1]; p.o., C57BL/6J mice) | Selectivity Ki (MOR) Ki (KOR) (rat KOR [2]) | Fold-Shift, Naïve ED50 vs. Second ED50 (C57BL/6J mice [3]) [fold] | ED50 (95% C.I.) Pretreated Mice (C57BL/6J mice [3]) | acute antinociceptive tolerance (C57BL/6J mice [3]) | Naïve ED50 (95% C.I.) (C57BL/6J mice [3]) | effect on coordinated locomotor performance (rotarod) vs vehicle (C57BL/6J mice [4]) | Receptors Involved (in antinociception) (C57BL/6J mice [5]) | Ki (rat KOR [6]) [µM] | half-life at 5 µM [7] [min] | Ki (rat MOR) [nM] | further results |
| --- | --- | --- | --- | --- | --- | --- | --- | --- | --- | --- | --- | --- | --- | --- | --- | --- |
| O=C1N[C@@H](Cc2ccccc2)C(=O)N2CCC[C@@H]2C(=O)N[C@H](Cc2ccccc2)C(=O)N[C@H]1Cc1c[nH]c2ccccc12 (single isomer, unassigned) [Stereoisomer 2, cyclo[Phe-D-Pro-D-Phe-Trp]] | 45–60% | 30 | 90 | 20.4 (10–58.7) nmol | ~ | 11 | 6.13 | 125 (89.9–224) nmol | the increase was not statistically significant | 20.4 (10–58.7) nmol | lacked any significant effect | KOR- and MOR-mediated antinociception | 0.362 ± 0.051 | 15 | 3920 ± 200 | antinociception at the highest dose tested (C57BL/6J mice [1]; 100 nmol, i.c.v.): approximately 70% |
| O=C1N[C@H](Cc2ccccc2)C(=O)N2CCC[C@@H]2C(=O)N[C@H](Cc2ccccc2)C(=O)N[C@H]1Cc1c[nH]c2ccccc12 (single isomer, unassigned) [Stereoisomer 3, cyclo[D-Phe-D-Pro-D-Phe-Trp]] |  | 20 | 45 | 1.00 (0.64–1.60) nmol |  | 3 | 5.19 |  | greater acute antinociceptive tolerance than CJ-15,208 | 1.00 (0.64–1.60) nmol | lacked any significant effect | KOR- and DOR-mediated | 2.56 ± 0.48 | 6 | 7780 ± 410 | effect on ambulation vs vehicle (C57BL/6J mice [8]): elevated ambulations at several time-points; antinociceptive efficacy (C57BL/6J mice [1]; p.o.): full antinociception; time of peak antinociception (C57BL/6J mice [1]; p.o. administration): 20 to 30 min; ED50 (and 95% C.I.) p.o. (C57BL/6J mice [1]; p.o., C57BL/6J mice, antinociception at peak response): 4.12 (3.30–5.31) mg/kg; conditioned place preference or aversion (C57BL/6J mice [9]): no significant preference or aversion |
| O=C1N[C@H](Cc2c[nH]c3ccccc23)C(=O)N[C@H](Cc2ccccc2)C(=O)N2CCC[C@@H]2C(=O)N[C@H]1Cc1ccccc1 (single isomer, unassigned) [Stereoisomer 4, cyclo[D-Phe-D-Pro-Phe-D-Trp]] | 45–60% | 20 | 45 | 2.39 (1.40–4.56) nmol | ~ |  | 0.54 | 1.28 (0.96–1.66) nmol | Neither stereoisomer 4 or 5 demonstrated any significant changes in the ED50 values | 2.39 (1.40–4.56) nmol | limited impairment of performance | KOR- and DOR-mediated | > 10 | 30 | > 10000 | effect on respiration rate vs vehicle (C57BL/6J mice [8]): significant decreases in respiration rates; duration of significant antinociception (C57BL/6J mice [1]; p.o. administration): 30 to 40 min |
| O=C1N[C@H](Cc2c[nH]c3ccccc23)C(=O)N[C@@H](Cc2ccccc2)C(=O)N2CCC[C@@H]2C(=O)N[C@H]1Cc1ccccc1 [[D-Trp]CJ-15,208, cyclo[Phe-D-Pro-Phe-D-Trp]] |  |  |  |  |  | 12 |  |  |  |  |  |  | 0.0218 ± 0.0048 |  |  | ED50 i.c.v. (symbol: not calculable) (C57BL/6J mice [10]; i.c.v., mice, [21]): ~; ED50 p.o. (symbol: not calculable) (C57BL/6J mice [10]; p.o., mice, [21]): ~; antinociceptive activity (C57BL/6J mice [10]): minimal antinociceptive activity; affinity for DOR (mouse DOR): negligible affinity for DOR |
